In patent US20250295609A1, “COMPOUND HAVING ANTI-ANDROGEN RECEPTOR ACTIVITY, AND USE THEREOF” (NANJING MINOVA PHARMACEUTICAL CO., LTD., priority 2022, published 2025):

Target: T1, AR protein expression in human prostate cancer cells LNCaP (Homo sapiens, UniProt P10275, T878A)
T1 sequence (P10275 1-920 T878A): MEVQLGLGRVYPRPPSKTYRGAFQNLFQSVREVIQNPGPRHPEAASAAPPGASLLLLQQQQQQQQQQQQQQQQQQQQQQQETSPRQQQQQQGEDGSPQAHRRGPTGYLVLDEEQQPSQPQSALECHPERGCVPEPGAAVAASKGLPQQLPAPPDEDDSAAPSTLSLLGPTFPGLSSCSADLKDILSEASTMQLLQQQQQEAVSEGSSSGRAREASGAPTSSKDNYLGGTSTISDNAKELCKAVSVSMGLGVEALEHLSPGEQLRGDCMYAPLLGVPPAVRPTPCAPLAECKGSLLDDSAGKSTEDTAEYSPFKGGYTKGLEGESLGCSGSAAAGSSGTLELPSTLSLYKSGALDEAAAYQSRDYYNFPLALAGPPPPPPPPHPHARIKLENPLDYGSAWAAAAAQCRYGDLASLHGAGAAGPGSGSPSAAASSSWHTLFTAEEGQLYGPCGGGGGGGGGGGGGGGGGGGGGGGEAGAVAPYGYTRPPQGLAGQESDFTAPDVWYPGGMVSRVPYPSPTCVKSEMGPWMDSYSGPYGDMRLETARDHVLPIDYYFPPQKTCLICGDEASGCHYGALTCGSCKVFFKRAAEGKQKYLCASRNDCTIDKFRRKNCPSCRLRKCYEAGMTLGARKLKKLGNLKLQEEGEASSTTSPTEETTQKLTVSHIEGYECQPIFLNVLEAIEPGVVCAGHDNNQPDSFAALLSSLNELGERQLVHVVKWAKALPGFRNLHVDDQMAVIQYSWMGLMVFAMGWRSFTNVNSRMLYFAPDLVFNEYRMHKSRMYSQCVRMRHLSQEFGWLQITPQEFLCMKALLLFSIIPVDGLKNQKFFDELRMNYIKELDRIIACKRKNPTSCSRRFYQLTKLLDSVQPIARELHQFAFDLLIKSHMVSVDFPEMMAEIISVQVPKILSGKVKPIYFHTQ
Experiment: Reduction of AR protein expression in LNCaP cells (Western blot, with DHT)
Format: cell-based
Details: 1 nM DHT; for anti-AR activity (in words): Western blot; for AR reduction percentage / Relative potency (anti-AR activity): 48 h; for Relative potency (anti-AR activity): concentration basis not given
Procedure: The term “anti-AR activity” refers to the ability of the compound of the present disclosure to reduce AR expression in human prostate cancer cells LNCaP, and the ability of the compound of the present disclosure to reduce AR expression is expressed in AR reduction percentage (%) herein. […] The AR reduction percentage (%) is calculated as follows: AR reduction percentage (%)=(AR in DHT group/GAPDH value−AR in test compound group/GAPDH value)/AR in DHT group/GAPDH value×100%.
AR is a key factor for regulating the response of prostate cancer cells to androgens. AR is also a key factor for the response of hair follicles or tissues around the hair follicles to androgens, and the reduction of the AR content not only can down-regulate the growth of the prostate cancer cells, but also can inhibit androgenetic alopecia. This test example is to test the effects of the compounds of the present disclosure on the reduction of AR protein expression in human prostate cancer cells LNCaP in the presence of DHT. The compounds of the present disclosure were analyzed for anti-AR activity in human prostate cancer cells LNCaP by measuring the reduction of AR protein using the Western blot method.
Human prostate cancer cells LNCaP were seeded in a 6-well plate at 4×10^5 cells/mL and at a volume of 2 mL per well. The plate was incubated overnight in a cell incubator. DMSO and dihydrotestosterone (DHT, 1 nM) were used as control groups. Assays were performed in the presence of dihydrotestosterone (DHT, 1 nM). After incubating with the test compounds for a specified time, the cells were collected and dissolved according to the Western blot technique known in the biochemical art. A DMSO group, a DHT group (1 nM) and test compound groups (containing 1 nM DHT) were set during the assay. DMSO and DHT (1 nM DHT) were added to 6-well plates corresponding to the DMSO group and the DHT group, respectively. […] The protein concentration was quantified using the BCA kit, and then the samples were stored for later use.
The content of the AR protein in each group was determined by using Western Blot, and the loading amount of the sample in each group was […]. Western blot analysis has been disclosed in the prior art. Specifically, the cells were collected in 2× sodium dodecyl sulfate/polyacrylamide gel electrophoresis loading buffer or in radioimmunoprecipitation assay (RIPA) buffer strengthened with 10 μg/mL benzamidine, 10 μg/mL trypsin inhibitor, and 1 mM phenylmethylsulfonyl fluoride. A sample of total protein (about 40 μg) from each cell lysate was separated by electrophoresis on an SDS/PAGE gel. After separation by electrophoresis, the proteins were transferred from the gel to a nitrocellulose membrane following the standard procedures. The membrane was then incubated with 10% non-fat milk in phosphate-buffered saline supplemented with 0.1% Tween 20 (PBST) for 1 h, followed by incubation with a primary human AR-specific antibody (purchased from BD-Harlingen) at 4° C. overnight. After incubation, the membrane was washed 3 times with PBST buffer, each for 10 mins. An alkaline phosphatase-conjugated secondary antibody was then added, and the membrane was incubated at room temperature for 1 h. After the secondary incubation, the membrane was washed again with PBST, and the AR protein signal in the membrane was visualized by adding an alkaline phosphatase medium, bromochloroindolyl phosphate, and nitrotetrazole to the membrane. To ensure that an equal amount of protein from each sample was analyzed, a portion of the membrane was kept with a specific antibody for the regulatory protein GAPDH (Santa Cruz Biotechnology), and the GAPDH signal was visualized with the secondary antibody described above. The protein signal intensity (as indicated by color bands on the membrane) was measured using a densitometer and analyzed by the NIH Image J software (NIH1.33).

Compound	anti-AR activity (in words)	AR reduction percentage (2.5 μmol/L compound) [%]	AR reduction percentage (5 μmol/L compound) [%]	AR reduction percentage (10 μmol/L compound) [%]	Relative potency (anti-AR activity)
COc1ccc(/C=C/C(=O)C2(C(=O)/C=C/c3ccc(OC)c(OC)c3)CCC(F)(F)CC2)cc1OC [Compound 8]	significant anti-AR activities	57.5	87.3	92.2	++++++ (75 < * ≤ 100)
COc1ccc(/C=C/C(=O)C2(C(=O)/C=C/c3ccc(OC)c(OC)c3)CCC(=O)CC2)cc1OC [Compound 7]	significant anti-AR activities	0	67.3	95.6	+++++ (62.5 < * ≤ 75)
